Measured values taken from patent publication US4175081A, “5-Substituted thiadiazole ureas” (priority 1977, dated 1979).

What was measured:
[1] = tested on: Corn (CN); experiment: Post-emergence herbicide test; assay type: in vivo; conditions: Zea mays, 336 h, two weeks after treatment
Outline: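 Greenhouse seedlings grown in potting soil and sprayed post-emergence at 8 lbs compound/acre (formulations also made for 4 lbs/acre) in 38 gallons/acre spray volume. Watering by sub-irrigation only. Injury or control rated visually two weeks after treatment.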

[2] = tested on: Johnson grass (JG); experiment: Post-emergence herbicide test; assay type: in vivo, Sorgum helepense; conditions: Sorghum halepense, 336 h, two weeks after treatment
Outline: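 Visual injury or control scores taken 2 weeks after a post-emergence spray of pot-grown plants. Application was 8 lbs/acre (or 4 lbs/acre) in 38 gal/acre. Plants were held in the greenhouse with sub-irrigation only.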

[3] = tested on: Corn (CN); experiment: Pre-emergence herbicide test; assay type: in vivo; conditions: Zea mays, 336 h, two weeks after treatment
Outline: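 Visual injury/control ratings were made 2 weeks post-spray on corn pots seeded (4 seeds, seed-diameter depth) the day before treatment. Application was a belt-hood spray of 38 gal/acre delivering 8 lbs active per acre, with a 4 lbs/acre rate also formulated. Watering was by sub-irrigation throughout.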

[4] = tested on: Turnip (TP); experiment: Post-emergence herbicide test; assay type: in vivo, Brassica sp.; conditions: Brassica rapa, post-emergence, 336 h, two weeks after treatment
Outline: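 A greenhouse post-emergence herbicide test on turnip. Seeds were sown on the surface of potting soil in 3' plastic pots, lightly covered with screened soil and watered from below. Planting was timed so seedlings had 1 or 2 true leaves above the cotyledons at spraying, done in a hood with a fixed nozzle. Control or injury was scored by eye after two weeks.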

[5] = tested on: Barnyard grass (BG); experiment: Post-emergence herbicide test; assay type: in vivo; conditions: Echinochloa crus-galli, 336 h, two weeks after treatment
Outline: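 Greenhouse pot-grown barnyard grass seedlings sprayed post-emergence at 8 lbs active compound per acre (some at 4 lbs/acre) in 38 gallons per acre, then sub-irrigated. Injury or control rated visually two weeks after treatment.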

[6] = tested on: Crabgrass (CG); experiment: Post-emergence herbicide test; assay type: in vivo, Digitaria sanquinalis; conditions: Digitaria sanguinalis, post-emergence, 336 h, two weeks after treatment
Outline: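 Crabgrass (Digitaria sanquinalis) was surface seeded individually in 3' plastic pots of potting soil, covered with screened soil, and watered by sub-irrigation in greenhouse trays. Planting was staggered so seedlings reached the target stage together. Post-emergence sprays were applied in a hood with a removable belt and fixed nozzle, and control was visually rated two weeks after treatment.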

[7] = tested on: Bean (BN); experiment: Pre-emergence herbicide test; assay type: in vivo, Phaseolus vulgaris var. Black Valentine; conditions: Phaseolus vulgaris, 336 h, two weeks after treatment
Outline: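 Visual injury/control ratings were taken two weeks post-spray on sub-irrigated Phaseolus vulgaris var. Black Valentine. Pots were sown a day before treatment. Pre-emergence spray delivered 8 lbs actual compound per acre (or 4 lbs/acre) at 38 gallons per acre.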

[8] = tested on: Cotton (CT); experiment: Post-emergence herbicide test; assay type: in vivo, Gossypium hirsutum var. DPL smooth leaf; conditions: Gossypium hirsutum, post-emergence, 336 h, two weeks after treatment
Outline: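 This greenhouse post-emergence test measured how well spray treatments controlled cotton. Seedlings of Gossypium hirsutum var. DPL smooth leaf, with expanded cotyledons and a first true leaf 1' in length, were sprayed with 50 ml formulations in a belt-fed spray hood. They were then returned to the greenhouse and watered only by sub-irrigation. Injury was scored visually as % control after two weeks.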

[9] = tested on: Yellow foxtail grass (YF); experiment: Pre-emergence herbicide test; assay type: in vivo, Setaria glauca; conditions: Setaria, 336 h, two weeks after treatment
Outline: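 Visual rating of injury/control made two weeks after a pre-emergence spray of 8 or 4 lbs active per acre (38 gal/acre) onto pots seeded the previous day. Greenhouse watering by sub-irrigation only.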

[10] = tested on: Cotton (CT); experiment: Pre-emergence herbicide test; assay type: in vivo, Gossypium hirsutum var. DPL smooth leaf; conditions: Gossypium hirsutum, 336 h, two weeks after treatment
Outline: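 Visual injury/control ratings were taken at two weeks post-spray. Pots seeded a day earlier received compound pre-emergence at 8 lbs/acre, or 4 lbs/acre, in a 38 gallon/acre spray volume, and were then held in the greenhouse, watered only from below.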

[11] = tested on: Johnson grass (JG); experiment: Pre-emergence herbicide test; assay type: in vivo, Sorgum helepense; conditions: Sorghum halepense, 336 h, two weeks after treatment
Outline: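 Visual injury or control rating two weeks post-treatment, after pre-emergence spray of 8 or 4 lbs active per acre (38 gal/acre) onto pots sown the previous day. Greenhouse watering by sub-irrigation only.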

[12] = tested on: Yellow foxtail grass (YF); experiment: Post-emergence herbicide test; assay type: in vivo, Setaria glauca; conditions: Setaria, 336 h, two weeks after treatment
Outline: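 Visual rating of injury/control made 2 weeks post-spray. Seedlings at a uniform growth stage in soil-filled pots received a hood spray of 8 lbs/acre active compound, 38 gallons/acre volume, with a 4 lbs/acre rate also formulated. Watering was by sub-irrigation only.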

[13] = tested on: Amaranth pigweed (PW); experiment: Pre-emergence herbicide test; assay type: in vivo, Amaranthus retroflexus; conditions: 336 h, two weeks after treatment
Outline: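 Visual injury or control ratings were made at two weeks on pre-emergence pots, sub-irrigated in the greenhouse. Seeds were sown a day before a hood spray delivering 8 lbs/acre (or 4 lbs/acre) of compound in 38 gallons per acre.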

[14] = tested on: variety of crops and weed species; experiment: Pre- and post-emergence herbicide tests, overall assessment of Tables III-VI; assay type: in vivo; conditions: data of Tables III-VI
Outline: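 Crops and weeds grown in potting soil were sprayed at 8 lbs. compound per acre in 38 gallons per acre, pre-emergence pots seeded one day before treatment. Injury or control was visually rated two weeks after treatment.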

[15] = tested on: Crabgrass (CG); experiment: Pre-emergence herbicide test; assay type: in vivo, Digitaria sanquinalis; conditions: Digitaria sanguinalis, pre-emergence, 336 h, two weeks after treatment
Outline: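 Crabgrass (Digitaria sanquinalis) was surface seeded in 3' plastic pots of potting soil, covered with screened soil, and watered by sub-irrigation in greenhouse trays. Pots were seeded one day before spraying in a hood with a moving belt and fixed nozzle. Plants stayed in the greenhouse on sub-irrigation, and pre-emergence control was rated visually two weeks after treatment.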

[16] = tested on: Turnip (TP); experiment: Pre-emergence herbicide test; assay type: in vivo, Brassica sp.; conditions: Brassica rapa, pre-emergence, 336 h, two weeks after treatment
Outline: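 In this pre-emergence greenhouse test, turnip was seeded on the surface of potting soil in 3' plastic pots, lightly covered with screened soil, and watered from below. One day later the pots were sprayed in a belt-fed spray hood. Watering continued only by sub-irrigation, and percent control was visually scored two weeks after treatment.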

[17] = tested on: Amaranth pigweed (PW); experiment: Post-emergence herbicide test; assay type: in vivo, Amaranthus retroflexus; conditions: 336 h, two weeks after treatment
Outline: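 Visual injury or control ratings were made two weeks after spraying, with greenhouse watering by sub-irrigation only. Treatment was post-emergence, when pigweed seedlings had 1 or 2 true leaves, at 8 lbs active compound per acre (4 lbs/acre formulations also made) in a 38 gallons-per-acre spray volume.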

[18] = tested on: Barnyard grass (BG); experiment: Pre-emergence herbicide test; assay type: in vivo; conditions: Echinochloa crus-galli, 336 h, two weeks after treatment
Outline: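 Greenhouse pre-emergence spray test: pots seeded one day before treatment received compound at rates of 8 or 4 lb/acre (38 gal/acre). Visual injury/control scores for Echinochloa crus-galli taken at two weeks, with watering by sub-irrigation only.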

[19] = tested on: Bean (BN); experiment: Post-emergence herbicide test; assay type: in vivo, Phaseolus vulgaris var. Black Valentine; conditions: Phaseolus vulgaris, post-emergence, 336 h, two weeks after treatment
Outline: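 Bean seedlings (Phaseolus vulgaris var. Black Valentine) were grown in potting soil in 3' pots until the primary leaves expanded. They were then sprayed under a hood with a removable belt and fixed nozzle, using 50 ml formulations. Afterward they were returned to the greenhouse and watered only by sub-irrigation. Percent control was judged visually two weeks after treatment.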

CNC(=O)N(C)c1nnc(C(F)(F)F)s1 [Example 36]
pest or weed control ([1]; 2 lb/acre): 70% | pest or weed control at 4483.4 g/ha ([1]; 4 lb/acre): 100% | pest or weed control at 8966.8 g/ha ([1]; 8 lb/acre): 100% | pest or weed control ([2]; 2 lb/acre): 80% | pest or weed control at 4483.4 g/ha ([2]; 4 lb/acre): 80% | pest or weed control at 8966.8 g/ha ([2]; 8 lb/acre): 100% | pest or weed control at 2241.7 g/ha ([3]; 2 lb/acre): 30% | pest or weed control at 4483.4 g/ha ([3]; 4 lb/acre): 40% | pest or weed control at 8966.8 g/ha ([3]; 8 lb/acre): 30% | pest or weed control at 2241.7 g/ha ([4]; 2 lb/acre): 100% | pest or weed control at 4483.4 g/ha ([4]; 4 lb/acre): 100% | pest or weed control at 8966.8 g/ha ([4]; 8 lb/acre): 100% | pest or weed control at 2241.7 g/ha ([5]; 2 lb/acre): 100% | pest or weed control at 4483.4 g/ha ([5]; 4 lb/acre): 100% | pest or weed control at 8966.8 g/ha ([5]; 8 lb/acre): 100% | pest or weed control ([6]; 2 lb/acre): 70% | pest or weed control at 4483.4 g/ha ([6]; 4 lb/acre): 90% | pest or weed control at 8966.8 g/ha ([6]; 8 lb/acre): 100% | pest or weed control at 2241.7 g/ha ([7]; 2 lb/acre): 90% | pest or weed control at 4483.4 g/ha ([7]; 4 lb/acre): 80% | pest or weed control at 8966.8 g/ha ([7]; 8 lb/acre): 100% | pest or weed control at 2241.7 g/ha ([8]; 2 lb/acre): 100% | pest or weed control at 4483.4 g/ha ([8]; 4 lb/acre): 100% | pest or weed control at 8966.8 g/ha ([8]; 8 lb/acre): 100% | pest or weed control at 2241.7 g/ha ([9]; 2 lb/acre): 100% | pest or weed control at 4483.4 g/ha ([9]; 4 lb/acre): 90% | pest or weed control at 8966.8 g/ha ([9]; 8 lb/acre): 90% | pest or weed control at 2241.7 g/ha ([10]; 2 lb/acre): 80% | pest or weed control at 4483.4 g/ha ([10]; 4 lb/acre): 90% | pest or weed control at 8966.8 g/ha ([10]; 8 lb/acre): 90% | pest or weed control at 2241.7 g/ha ([11]; 2 lb/acre): 70% | pest or weed control at 4483.4 g/ha ([11]; 4 lb/acre): 40% | pest or weed control at 8966.8 g/ha ([11]; 8 lb/acre): 90% | pest or weed control ([12]; 2 lb/acre): 100% | pest or weed control at 4483.4 g/ha ([12]; 4 lb/acre): 100% | pest or weed control at 8966.8 g/ha ([12]; 8 lb/acre): 100% | pest or weed control at 2241.7 g/ha ([13]; 2 lb/acre): 90% | pest or weed control at 4483.4 g/ha ([13]; 4 lb/acre): 100% | pest or weed control at 8966.8 g/ha ([13]; 8 lb/acre): 90% | herbicidal effectiveness / selectivity, in words [14]: extremely effective when applied to a variety of crops and weed species | pest or weed control ([15]; 2 lb/acre): 100% | pest or weed control at 4483.4 g/ha ([15]; 4 lb/acre): 90% | pest or weed control at 8966.8 g/ha ([15]; 8 lb/acre): 90% | pest or weed control at 2241.7 g/ha ([16]; 2 lb/acre): 100% | pest or weed control at 4483.4 g/ha ([16]; 4 lb/acre): 100% | pest or weed control at 8966.8 g/ha ([16]; 8 lb/acre): 100% | pest or weed control at 2241.7 g/ha ([17]; 2 lb/acre): 100% | pest or weed control at 4483.4 g/ha ([17]; 4 lb/acre): 100% | pest or weed control at 8966.8 g/ha ([17]; 8 lb/acre): 100% | pest or weed control at 2241.7 g/ha ([18]; 2 lb/acre): 80% | pest or weed control at 4483.4 g/ha ([18]; 4 lb/acre): 100% | pest or weed control at 8966.8 g/ha ([18]; 8 lb/acre): 90% | pest or weed control at 2241.7 g/ha ([19]; 2 lb/acre): 100% | pest or weed control at 4483.4 g/ha ([19]; 4 lb/acre): 100% | pest or weed control at 8966.8 g/ha ([19]; 8 lb/acre): 100%
